# Assay results published in patent publication US20230285357A1, “COMPOSITIONS AND METHODS FOR […] CELLS” (The Regents of the University of California, priority 2020, published 2023).
# Key:
# vascular repair = test: Hindlimb ischemia model in nude mice after cell transplantation; format: in vivo, mouse
# Method: Then, same cells in a model of hindlimb ischemia in nude mice to evaluate the capacity of eGFP positive cells in vascular repair were tested. After ligation of the proximal and distal femoral artery, eGFP positive cells were transplanted (FIG. 2, Part F). Human aortic endothelial cells (HAECs) and osteoblasts were used as controls.
# Tube formation assays in vitro was then tested. […] Cells into hindlimb ischemia mouse model were transplanted.
# Laser Doppler perfusion imaging was performed using real-time microcirculation imaging system (Perimed). The imaging was conducted under normal ambient room lighting. 20×27 mm high resolution model was used with 1388×1038 pixels measurement camera and 752×580 pixels documentation camera as one image per second. The image resolution was set up as 20 μm/pixel and 21 images per frame until stopped. Windows based PIMSoft software (Perimed) was used to process the data.
# The murine model of hindlimb ischemia was performed as previously described. A 10 mm long incision of the skin was made towards the medial thigh. The femoral artery was exposed and separated from femoral vein and nerve. Silk sutures were used to tie the proximal and the distal end of femoral artery with double knots. The cells (5×10^5) were transplanted into the surgical area and the incision was closed. Laser Doppler perfusion imaging was used to monitor the blood flow at different time points. Histology and immunostaining were used to examine the vascularization 2 weeks after transplantation.
# [1] = tested on: SMAD1 or β-catenin DNA-binding; test: ChIP-seq of SMAD1 and β-catenin DNA-binding in treated osteoblasts; format: cell-based, mouse
# Method: A chromatin immunoprecipitation was performed with massively parallel DNA sequencing (ChIP-seq) to examine potential alterations of SMAD1 or β-catenin DNA-binding in SB216763-treated osteoblasts.
# For ChIP-seq, specific antibodies were used to enrich the genomic DNA as described before. ChIP DNA were sequenced by the Pathology Research Services at UCLA. Reads from each sample were mapped to the mouse genome using Bowtie2. Homer tool was used to detect significant enrichment of peaks with 5% false discovery rate and >4-fold over input. Motif occurrences in peaks were identified by the Homer motif discovery function. Peak annotation was performed to associate peaks with nearby genes and calculate tag densities. GO analysis and pathway enrichment of the identified genes were also performed. Specific antibodies for SMAD1 (Cell Signaling Technology, 9743) and β-catenin (R&D System, MAB2006) were used. The data were deposited in Gene Expression Omnibus (GEO) database with access number (GSE147374).
# GSK3α and GSK3β = settings: cited from earlier work
# [2] = tested on: bone tissue of wild type mice; test: Effect of long treatment on bone formation in wild type mice; format: in vivo, mouse; settings: wild type mice at 8 weeks of age, 5 ug/g daily for 8 weeks
# Method: To determine if long-treatment of SB216763 has any effects on bone formation, wild type mice were treated at 8 weeks of age with SB216763 (5 ug/g daily) for 8 weeks. After treatment, the bone tissue was examined by micro-CT imaging and immunostaining.
# (§1) MicroCT imaging was performed at the Crump Imaging Center at UCLA. All the samples were scanned on a high-resolution, volumetric microCT scanner (CT125). The image data were acquired with the following parameters: 10 μm isotropic voxel resolution; 200 ms exposure time; 2,000 views and 5 frames per view. The microCT-generated DICOM files were used to analyze the samples and to create volume renderings of the regions of interest. The raw data files were viewed using the MicroView 3-D volume viewer and analysis tool (GE Healthcare) and AltaViewer™ Software. Additionally, images of the samples were generated using SCIRun (Scientific Computing and Imaging Institute).
# [3] = tested on: vascular calcification in Mgp−/− mice; test: Late vascular calcification in Mgp−/− mice; format: in vivo, mouse
# Method: It was next examined if SB216763 reversed osteogenesis in vascular calcification by treating Mgp^−/− mice at 4 weeks of age for 2 weeks (FIG. 5, Part F).
# Mgp^+/− (B6.129S7-Mgptm1Kry/KbosJ), Col1α1^CreERT2 (B6.Cg-Tg(Col1α1-cre/ERT2)1Crm/J), GSK3β^flox/flox (B6.129(Cg)-Gsk3btm2Jrw/J) and Osx-Gfptg (B6.Cg-Tg(Sp7-tTA,tetO-EGFP/cre)1Amc/J) mice on C57BL/6J background were purchased from the Jackson Laboratory. Genotypes were confirmed by PCR, and experiments were performed with generation F4-F6. Littermates were used as wild type controls. All mice were fed a standard chow diet. The studies were reviewed and approved by the Institutional Review Board and conducted in accordance with the animal care guidelines set by the University of California, Los Angeles (UCLA). The investigation conformed to the National Research Council, Guide for the Care and Use of Laboratory Animals, Eighth Edition (Washington, D.C.: The National Academies Press, 2011).
# as §1
# [4] = Mgp−/− mice at 4 weeks of age treated for 2 weeks
structure (smiles),measurement,setting,value
Cn1cc(C2=C(c3ccc(Cl)cc3Cl)C(=O)NC2=O)c2ccccc21 [SB216763],"blood flow, Laser Doppler perfusion imaging",vascular repair; SB216763-treated cells with restoring SMAD1 vs controls,No difference was observed
same,"blood flow, Laser Doppler perfusion imaging",vascular repair; SB216763-treated osteoblasts with depletion of β-catenin vs cells without depletion,less blood flow
same,"vascular density, histology and immunostaining",vascular repair; transplanted eGFP positive cells,increase in vascular density
same,"limb blood flow, Laser Doppler perfusion imaging",vascular repair; transplanted eGFP positive cells compared to osteoblasts,significantly higher limb blood flow
same,genes with decreased DNA-binding of SMAD1 in the regulatory regions,[1]; ChIP-seq,8214 genes
same,genes with increased β-catenin DNA-binding in the regulatory regions,[1]; ChIP-seq,1543 genes
same,genes with an increase in expression and β-catenin DNA-binding,[1]; overlap with 519 induced genes,84 genes
same,genes with a decrease in both gene expression and SMAD1 DNA-binding,[1]; overlap with 827 suppressed genes,649 genes
same,inhibition of GSK3 isoforms GSK3α and GSK3β,GSK3α and GSK3β,specifically inhibits the activity of these GSK3 isoforms in an ATP competitive manner
same,hemorrhage in the bone tissue,[2],had not detected any hemorrhage
same,"microstructure of bone tissues and vasculature, immunostaining of CD31 and osterix",[2],no changes in the microstructure of bone tissues and vasculature
same,"relative bone volumes and connectivity densities, micro-CT",[2]; treated vs non-treated,no differences
same,"CD31-positive cells co-expressing VE-cadherin and osterix, FACS",[3]; [4],decrease of CD31-positive cells that co-expressed VE-cadherin and osterix
same,"CD31-positive cells expressing VE-cadherin only, FACS",[3]; [4],increase of CD31-positive cells that expressed VE-cadherin only
same,"aortic calcification, microCT imaging",[3]; [4],reduction of aortic calcification
same,histology of calcified areas of the aortas,[3]; [4],change in morphology in calcified areas of the aortas
same,"mineralization of whole aortic tissues, alizarin red staining",[3]; [4],reduction of mineralization
same,total aortic calcium and mineral deposition,[3]; [4],decrease of total aortic calcium and mineral deposition
same,"osteogenic markers in aortic tissue, real-time PCR",[3]; treated Mgp−/− mice compared to non-treated mice,decrease of osteogenic markers
